Molecules are shown by their SMILES.

In the assay the test system is Candida albicans. Description: Fungal load: patient with severe candidiasis (present-tense example). In kind it is in vivo, human. The following applies: two weeks, before YG Product. Here is the method:
The following present-tense examples are intended to illustrate and summarize the teachings of the preceding examples that describe actual clinical data with over 100 AIDS and ARC patients.
The candidiasis clears. A dose is administered by one of the following routes: intradermally, subcutaneously, orally, transmucosally, sublingually, or transdermally.

Take `OC(Cn1cncn1)(Cn1cncn1)c1ccc(F)cc1F` [Fluconazole]: the “effect of antifungal treatment alone on severe candidiasis” value is on record as “without effect”.

Source of the values: patent publication US7419776B1, “Method of reducing pathogen load” (priority 1999, dated 2008).
